Laboratory results reported in US20200129531A1, “USE OF WITHANIA SOMNIFERA EXTRACT TO PROTECT AGAINST AIR POLLUTION RELATED DISEASES” (DSM IP Assets B.V., priority 2017, published 2020).

Legend:
IL-8 = IL-8 secretion of A549 cells treated with Diesel Particulate Matter; assay type: cell-based, human; conditions: for effect on IL-8 secretion (in words): A549, PM-induced; for IL-8 / IL-8 % of PM + DMSO: Table 7, A549, 24 h
Source text: (§1) The human bronchial epithelial cell line BEAS-2B was from ATCC (American Type Culture Collection, Manassas, Va.) and cultured in Bronchial Epithelial cell Growth Medium (BEGM, Lonza, Wakersville, Md.) in CellBIND® surface plastic flasks (Corning Inc., Corning, N.Y.). The adenocarcinomic human alveolar basal epithelial A549 cell line was obtained from ATCC and cultured in Kaighn's Modification of Ham's F-12 Medium (F-12K medium) (Life Technologies, USA), supplemented with 10% FBS (Sigma, Saint-Louis, Mo.). These cells were cultured at 37° C. in a humidified atmosphere containing 5% CO2.
(§2) BEAS-2B cells were seeded in 12-well CellBIND® surface culture plates (Corning Inc.) at 3 to 4×10^5 cells per well. A549 cells were seeded in 12-well plates at 2×10^5 cells per well.
(§3) Diesel Particulate Matter (Standard Reference Material SRM 1650b, National Institute of Standards & Technology, NIST, Gaithersburg, Md.) at 80 mg/ml DMSO (100%) were sonicated for 5 min and thereafter diluted 400 fold in medium. This dilution was twofold further diluted for the assay.
(§4) After 24 h, cells were treated with the diluted Diesel Particulate Matter at 100 μg/ml and in the presence of different concentrations of Withania somnifera extracts, other plant extracts, fractions and compounds as indicated. The final DSMO concentrations were 0.175%.
(§5) Untreated cells or cells treated with 0.175% DMSO were used as controls. After 24 h, cell supernatants were collected.
(§6) The concentrations of IL-6 and IL-8 in the supernatants were determined by Luminex kits (BIO-RAD Laboratories, Hercules, Calif.) and used in the LiquiChip Workstation IS 200 (Qiagen, Hilden, Germany). The data were evaluated with the LiquiChip Analyser software (Qiagen).

PGE2 = PGE2 secretion of BEAS-2B cells treated with Diesel Particulate Matter; assay type: cell-based, human; conditions: for effect on PGE2 secretion compared to PM with DMSO (in words): PM-treated BEAS-2B; for PGE2 / PGE2 % of PM + DMSO: Table 10, BEAS-2B, 24 h
Source text: as §1, §2, §3, §4, §5
Secreted PGE2 was determined by Enzyme Immuno Assay (EIA) (Cayman Chemicals, Ann Harbor, […].).

Nrf2 = experiment: Luciferase reporter assay using H411E-ARE8L cells (Nrf2 activation); conditions: for Nrf-2 activity, Normalized data: R-sulforaphane set to 1.0, DMSO 0
Protocol: Luciferase Reporter Assay Using H411E-ARE8L Cells:
The medium for H411E-ARE8L cells was Dulbecco's Modified Eagle Medium (DMEM) high glucose containing heat inactivated 10% fetal bovine Serum (FBS). The media was exchanged every two to three-days. The DMEM assay medium used charcoal treated FBS (DMEMct). The transactivation assay was performed in 96 well plates. The plates were seeded with approximately 40′000 cells per well in 100 μl DMEMct and incubated over night at 37° C. Then the test compounds were diluted in DMEDct and given to the cells as described below. The cells were incubated for at least further 16 h at 37° C. and 5% CO2. Cells were equilibrated to room temperature. Lysis of the cells was done by adding 100 μL lysis solution, Steady-Glo© luciferase buffer according to the manufacturer (Promega) containing 0.5 mM DTT per well and incubated for 10 min at room temperature with gentle shaking. The luminescence was measured within 2 hours after incubation on a luminometer (Mithras, Berthold Technologies).
The negative control were cells in 0.5% DMSO.
All extracts, fractions and pure compounds were tested for concentrations that induce toxicity. Non-toxic concentrations were then selected for treating cells as describes in the methods section.

IL-6 [1] = experiment: IL-6 secretion of BEAS-2B cells treated with Diesel Particulate Matter; assay type: cell-based, human; conditions: for IL-6 / IL-6 % of PM + DMSO: 24 h
Source text: as §1, §2, §3, §4, §5, §6

MCP-1 = MCP-1 secretion of A549 cells treated with Diesel Particulate Matter; assay type: cell-based, human; conditions: for effect on PM-induced MCP-1 secretion (in words): A549; for MCP-1 / MCP-1 % of PM + DMSO: Table 9, A549, 24 h
Source text: The human bronchial epithelial cell line BEAS-2B was from ATCC (American Type Culture Collection, Manassas, Va.) and cultured in Bronchial Epithelial cell Growth Medium (BEGM, Lonza, Wakersville, Md.) in CellBIND® surface plastic flasks (Corning Inc., Corning, N.Y.). The adenocarcinomic human alveolar basal epithelial A549 cell line was obtained from ATCC and cultured in Kaighn's Modification of Ham's F-12 Medium (F-12K medium) (Life Technologies, USA), supplemented with 10% FBS (Sigma, Saint-Louis, Mo.). These cells were cultured at 37° C. in a humidified atmosphere containing 5% CO2. BEAS-2B cells were seeded in 12-well CellBIND® surface culture plates (Corning Inc.) at 3 to 4×10^5 cells per well. A549 cells were seeded in 12-well plates at 2×10^5 cells per well. […] This dilution was twofold further diluted for the assay. After 24 h, cells were treated with the diluted Diesel Particulate Matter at 100 μg/ml and in the presence of different concentrations of Withania somnifera extracts, other plant extracts, fractions and compounds as indicated. The final DSMO concentrations were 0.175%. Untreated cells or cells treated with 0.175% DMSO were used as controls. After 24 h, cell supernatants were collected.

IL-6 [2] = experiment: IL-6 secretion of A549 cells treated with Diesel Particulate Matter; assay type: cell-based, human; conditions: for IL-6 / IL-6 % of PM + DMSO: Table 5, A549, 24 h
Source text: as §1, §2, §3, §4, §5, §6

HMOX = experiment: Endogenous Nrf2 activation assay using BEAS-2B cells: HMOX mRNA expression; assay type: cell-based, human; conditions: 0.1% DMSO set to 1
Protocol: (§7) The human bronchial epithelial cell line BEAS-2B was from ATCC (American Type Culture Collection, Manassas, Va.) and cultured in Bronchial Epithelial cell Growth Medium (BEGM, Lonza, Wakersville, Md.) in CellIBIND® surface plastic flasks (Corning Inc., Corning, N.Y.). BEAS-2B cells were seeded in 6-well CellIBIND® surface culture plates (Corning Inc.) at 1×10^6 cells per well and incubated at 37° C. with 5% CO2 for 24 hours.
(§8) A 100 mM R-Sulforaphane stock solution was prepared in DMSO (ABCAM, Cat. No. ab141971, Lot GR303041-2). The R-Sulforaphane stock was diluted in DMSO to obtain the desired final concentrations. Withania somnifera extract (NIG-018911) stock solution was prepared in DMSO.
(§9) After 24 h, cells were treated with different concentrations of Withania somnifera extract (5 μg/ml, 10 μg/ml, 25 μg/ml), R-Sulforaphane (2 μM, 5 μM, 10 μM) or DMSO (0.1%) and incubated at 37° C. with 5% CO2 for 4 hrs or 24 hrs. Each treatment was done in triplicate.
(§10) RNA extraction, cDNA synthesis and TaqMan based real-time PCR: After 4 hrs and 24 hrs cells were harvested in RLT buffer, RNA isolation was done using the RNeasy Mini Kit from Qiagen (Cat. No. 74106). cDNA was prepared with 2500 ng total RNA using SuperScript™ First-Strand Synthesis System for RT-PCR (Invitrogen, Cat. No. 11904-018)
(§11) In a 20 μL PCR reaction, a total input of […] of cDNA was amplified in the ABI 7900 HT real-time PCR System (Applied Biosystems) using the TaqMan® Fast Advanced Master Mix (LifeTechnologies Cat. No. 4444557), 50 nM primers, and 100 nM probe (VIC-TAMRA-labeled) for the 18S rRNA internal control
(§12) and 300 nM primers and 100 nM probe (FAM-TAMRA-labeled) for the gene of interest human
(§13) The thermal cycling profile consisted of 2 min at 50° C. for Uracil-N-glycosylase activation, 95° C. for 20 seconds for polymerase activation followed by 40 cycles 95° C. for 1 second and primer annealing at 60° C. for 20 seconds.
(§14) Relative gene expression was performed by subtracting threshold cycles (CT) for ribosomal RNA from the CT of the targeted gene (ΔCT). Relative mRNA levels were then calculated as 2^−ΔΔCT, where ΔΔCT refers to the ΔCT of […].

NQO1 = experiment: Endogenous Nrf2 activation assay using BEAS-2B cells: NQO1 mRNA expression; assay type: cell-based, human; conditions: 0.1% DMSO set to 1
Protocol: as §7, §8, §9, §10, §11, §12, §13, §14

[3] = Table 3, 10 μg/ml + PM 100 μg/ml
[4] = Table 3, 5 μg/ml + PM 100 μg/ml

12-deoxywithastramonolide
effect on IL-8 secretion (in words) (IL-8): significant inhibition | IL-8 (IL-8; 10 μg/ml + PM 100 μg/ml): 208.3 pg/mL | IL-8 % of PM + DMSO (IL-8; 10 μg/ml + PM 100 μg/ml): 69% | effect on PGE2 secretion compared to PM with DMSO (in words) (PGE2): significant decrease | PGE2 (PGE2; 10 μg/ml + PM 100 μg/ml): 28.3 pg/mL | PGE2 % of PM + DMSO (PGE2; 10 μg/ml + PM 100 μg/ml): 74% | Nrf-2 activity, Average (Nrf2; Conc. final 22.73 μg/ml): 33869 relative units of luciferase fluorescence | Nrf-2 activity, Normalized data (Nrf2; Conc. final 22.73 μg/ml): 1.1701 | IL-6 (IL-6 [1]; [3]): 51.9 pg/mL | IL-6 % of PM + DMSO (IL-6 [1]; [3]): 207% | effect on PM-induced MCP-1 secretion (in words) (MCP-1): significant decrease | MCP-1 (MCP-1; 10 μg/ml + PM 100 μg/ml): 646.3 pg/mL | MCP-1 % of PM + DMSO (MCP-1; 10 μg/ml + PM 100 μg/ml): 74% | effect on PM-induced IL-6 secretion (in words) (IL-6 [2]; A549): decrease | IL-6 (IL-6 [2]; 10 μg/ml + PM 100 μg/ml): 9.5 pg/mL | IL-6 % of PM + DMSO (IL-6 [2]; 10 μg/ml + PM 100 μg/ml): 75%

CO[C@H]1CC(=O)[C@]2(C)[C@H]3CC[C@]4(C)[C@@H]([C@H](C)[C@H]5CC(C)=C(CO)C(=O)O5)CC[C@H]4[C@@H]3C[C@H]3O[C@]32[C@H]1O [Quresimine A, quresimine A]
effect on IL-8 secretion (in words) (IL-8): significant inhibition | IL-8 (IL-8; 5 μg/ml + PM 100 μg/ml): 242 pg/mL | IL-8 % of PM + DMSO (IL-8; 5 μg/ml + PM 100 μg/ml): 80% | effect on PGE2 secretion compared to PM with DMSO (in words) (PGE2): borderline | PGE2 (PGE2; 5 μg/ml + PM 100 μg/ml): 33.2 pg/mL | PGE2 % of PM + DMSO (PGE2; 5 μg/ml + PM 100 μg/ml): 87% | IL-6 (IL-6 [1]; [4]): 23.5 pg/mL | IL-6 % of PM + DMSO (IL-6 [1]; [4]): 94% | effect on PM-induced MCP-1 secretion (in words) (MCP-1): low, but non-significant decrease | MCP-1 (MCP-1; 5 μg/ml + PM 100 μg/ml): 796.7 pg/mL | MCP-1 % of PM + DMSO (MCP-1; 5 μg/ml + PM 100 μg/ml): 92% | effect on PM-induced IL-6 secretion (in words) (IL-6 [2]; A549): decrease | IL-6 (IL-6 [2]; 5 μg/ml + PM 100 μg/ml): 9.5 pg/mL | IL-6 % of PM + DMSO (IL-6 [2]; 5 μg/ml + PM 100 μg/ml): 75%

C[S@@+]([O-])CCCCN=C=S [R-Sulforaphane, R-sulforaphane]
Relative mRNA expression level at 4 h (HMOX) (HMOX; 2 μM): 9.48 | Relative mRNA expression level at 24 h (HMOX) (HMOX; 2 μM): 2.63 | Relative mRNA expression level at 4 h (HMOX) (HMOX; 5 μM): 22.44 | Relative mRNA expression level at 24 h (HMOX) (HMOX; 5 μM): 5.23 | Relative mRNA expression level at 4 h (HMOX) (HMOX; 10 μM): 27.43 | Relative mRNA expression level at 24 h (HMOX) (HMOX; 10 μM): 7.12 | reduction of PM-induced cytokine secretion (IL-8 paragraph) (IL-8; A549, concentration not given): twofold | Nrf-2 activity, Average (Nrf2; Conc. final 4.55 μg/ml): 29384 relative units of luciferase fluorescence | Nrf-2 activity, Normalized data (Nrf2; Conc. final 4.55 μg/ml): 1.0000 | Relative mRNA expression level at 4 h (NQO1) (NQO1; 2 μM): 1.60 | Relative mRNA expression level at 24 h (NQO1) (NQO1; 2 μM): 4.66 | Relative mRNA expression level at 4 h (NQO1) (NQO1; 5 μM): 2.26 | Relative mRNA expression level at 24 h (NQO1) (NQO1; 5 μM): 7.62 | Relative mRNA expression level at 4 h (NQO1) (NQO1; 10 μM): 1.78 | Relative mRNA expression level at 24 h (NQO1) (NQO1; 10 μM): 8.77 | effect on PM-induced IL-6 secretion (in words) (IL-6 [1]; concentration not given): significantly reduced | effect on PM-induced MCP-1 secretion (in words) (MCP-1): clear inhibition | reduction of PM-induced IL-6 secretion (IL-6 [2]; A549, concentration not given): about twofold

CC1=C(C)C(=O)O[C@@H]([C@](C)(O)[C@H]2CC[C@H]3[C@@H]4[C@@H]5O[C@@H]5[C@@]5(O)CC=CC(=O)[C@]5(C)[C@H]4CC[C@]23C)C1 [Withanolide A, withanolide A]
effect on IL-8 secretion (in words) (IL-8): no effect | IL-8 (IL-8; 10 μg/ml + PM 100 μg/ml): 313.7 pg/mL | IL-8 % of PM + DMSO (IL-8; 10 μg/ml + PM 100 μg/ml): 103% | PGE2 (PGE2; 10 μg/ml + PM 100 μg/ml): 34.7 pg/mL | PGE2 % of PM + DMSO (PGE2; 10 μg/ml + PM 100 μg/ml): 91% | Nrf-2 activity, Average (Nrf2; Conc. final 22.73 μg/ml): 4677 relative units of luciferase fluorescence | Nrf-2 activity, Normalized data (Nrf2; Conc. final 22.73 μg/ml): 0.0629 | IL-6 (IL-6 [1]; [3]): 32.8 pg/mL | IL-6 % of PM + DMSO (IL-6 [1]; [3]): 131% | effect on PM-induced MCP-1 secretion (in words) (MCP-1): low, but non-significant decrease | MCP-1 (MCP-1; 10 μg/ml + PM 100 μg/ml): 790.7 pg/mL | MCP-1 % of PM + DMSO (MCP-1; 10 μg/ml + PM 100 μg/ml): 91% | effect on PM-induced IL-6 secretion (in words) (IL-6 [2]; A549): decrease | IL-6 (IL-6 [2]; 10 μg/ml + PM 100 μg/ml): 15.2 pg/mL | IL-6 % of PM + DMSO (IL-6 [2]; 10 μg/ml + PM 100 μg/ml): 120%
